The target of experiment [1] is BIR3 domain of human XIAP (residues 252-350) (Homo sapiens (Human), UniProt P98170). Nature of the experiment: XIAP in vitro competitive displacement binding assay (fluorescence polarization). The settings on record: for IC50: read-out: IC50 or PI Xiap: IC50.
In experiment [2] the target is BIR3 domain of human cIAP-1 (residues 267-363) (Homo sapiens (Human), UniProt Q13490). Nature of the experiment: cIAP-1 in vitro competitive displacement binding assay (fluorescence polarization; Probe A AVPIK(5&6FAM)-amide or Probe B AbuRPFK(5&6FAM)-amide).
The subject of experiment [3] is EVSA-T (human breast carcinoma). Nature of the experiment: Anti-proliferative activity, Alamar Blue assay, EVSA-T. The class given is cell-based. As to conditions: Homo sapiens, EVSA-T; for EC50: read-out: EVSA-T prolif (EC50).
Where [4] appears, read: read-out: IC50 or PI cIAP1: IC50.
[5] abbreviates: 1 h, read-out: IC50 or PI Xiap: PI.
[6] abbreviates: 3 h, read-out: IC50 or PI cIAP1: PI.
The mark [7] stands for this setting: 1 h, @ 0.04 μM, read-out: IC50 or PI Xiap: PI.
[8] abbreviates: Probe B AbuRPFK(5&6FAM)-amide, read-out: IC50 or PI cIAP1: IC50.
Where [9] appears, read: 3 h, Probe B, @ 0.012 μM, read-out: IC50 or PI cIAP1: PI.

Counter-ions that a name gives are not always drawn. Like-named read-outs stand apart in the source and are kept apart here.

For `C[C@@H]1CN(CC(=O)N2CC(C)(C)c3ncc(C(C)(F)F)cc32)[C@@H](CN2CCc3cccnc32)CN1` [Example 222, 1-[6-(1,1-Difluoroethyl)-3,3-dimethyl-1H,2H,3H-pyrrolo[3,2-b]pyridin-1-yl]-2-[(2R,5R)-5-methyl-2-{1H,2H,3H-pyrrolo[2,3-b]pyridin-1-ylmethyl}piperazin-1-yl]ethan-1-one dihydrochloride], the IC50 in experiment [1] was 220 nM; in experiment [2], less than 1000 nM; in experiment [2] (setting [4]), 140 nM. The EC50 in experiment [3] (72 h) turned out to be 9600 nM.
Consider `C[C@@H]1CN(CC(=O)N2CC(C)(C)c3ncc(Cc4ccc(F)cc4F)cc32)[C@@H](CN2CCOC[C@H]2C)CN1` [Example 264, 1-[6-(2,4-Difluoro-benzyl)-3,3-dimethyl-2,3-dihydro-pyrrolo[3,2-b]pyridin-1-yl]-2-[(2R,5R)-5-methyl-2-((R)-3-methyl-morpholin-4-ylmethyl)-piperazin-1-yl]-ethanone, dihydrochloride], for which the inhibition at 0.04 µM in experiment [1] (setting [5]) was determined as 68%. Further, the inhibition at […] in experiment [2] (setting [6]) came out at 98%. Moreover, the EC50 in experiment [3] (72 hours, Alamar Blue) worked out at 1 nM.
On to `CCC(F)(F)c1cnc2c(c1)N(C(=O)CN1C[C@@H](C)NC[C@@H]1CN1CCOC[C@H]1C)CC2(C)C` [Example 186, 1-[6-(1,1-Difluoropropyl)-3,3-dimethyl-1H,2H,3H-pyrrolo[3,2-b]pyridin-1-yl]-2-[(2R,5R)-5-methyl-2-{[(3R)-3-methylmorpholin-4-yl]methyl}piperazin-1-yl]ethan-1-one, a hydrochloride salt], for which the inhibition at 0.04 µM in experiment [1] (setting [7]) stood at 59%. Besides, the IC50 in experiment [2] (setting [8]) was 11 nM. Further, in experiment [3] (72 hours, Alamar Blue), the EC50 turned out to be 25 nM.
As for `CCC(F)(F)c1cc2c(cn1)C(C)(C)CN2C(=O)CN1C[C@@H](C)NC[C@@H]1CN1CCCC1=O` [Example 198, 1-{[(2R,5R)-1-{2-[6-(1,1-Difluoropropyl)-3,3-dimethyl-1H,2H,3H-pyrrolo[3,2-c]pyridin-1-yl]-2-oxoethyl}-5-methylpiperazin-2-yl]methyl}pyrrolidin-2-one], the inhibition at 0.04 µM in experiment [1] (setting [7]) was found to be 69%. Also, the figures for the IC50 in experiment [2] and in experiment [2] (setting [8]) were less than 1000 nM and 23 nM, respectively. Also, the EC50 in experiment [3] (72 hours, Alamar Blue) was determined as 880 nM.
With `C[C@@H]1CN(CC(=O)N2CC(C)(c3ccccc3)c3ccc(C#N)cc32)[C@@H](Cn2cccn2)CN1` (stereo partly drawn) [Example 143, 3-Methyl-1-{2-[(2R,5R)-5-methyl-2-(1H-pyrazol-1-ylmethyl)piperazin-1-yl]acetyl}-3-phenyl-2,3-dihydro-1H-indole-6-carbonitrile hydrochloride], the IC50 in experiment [1] came to 100 nM; in experiment [2] (setting [8]), 200 nM. In addition, the EC50 in experiment [3] (72 hours, Alamar Blue) was 8800 nM.
Taken in the same sequence, the figures for `COC[C@H]1CN[C@H](C)CN1CC(=O)N1CC(C)(C)c2cnc(C3=CCCCC3)cc21` [Example 106, 1-[6-(Cyclohex-1-en-1-yl)-3,3-dimethyl-1H,2H,3H-pyrrolo[3,2-c]pyridin-1-yl]-2-[(2R,5R)-2-(methoxymethyl)-5-methylpiperazin-1-yl]ethan-1-one, hydrochloride salt] were 110 nM, 23 nM and 440 nM.
Take `C[C@@H]1CN(CC(=O)N2CC(C)(C)c3cnc(Cc4ccccc4)cc32)[C@@H](Cn2cc(F)cn2)CN1` [Example 157, 1-{6-Benzyl-3,3-dimethyl-1H,2H,3H-pyrrolo[3,2-c]pyridin-1-yl}-2-[(2R,5R)-2-[(4-fluoro-1H-pyrazol-1-yl)methyl]-5-methylpiperazin-1-yl]ethan-1-one hydrochloride]: the IC50 in experiment [1] worked out at 65 nM. In addition, in experiment [2] (setting [9]), the inhibition at […] came out at 78%. Besides, the EC50 in experiment [3] (72 hours, Alamar Blue) was found to be 95 nM.
Consider `COC[C@H]1CN[C@H](C)CN1CC(=O)N1CC(C)(C)c2cnc(C(F)(F)c3ccccc3)cc21` [Example 146, 1-{6-[Difluoro(phenyl)methyl]-3,3-dimethyl-1H,2H,3H-pyrrolo[3,2-c]pyridin-1-yl}-2-[(2R,5R)-2-(methoxymethyl)-5-methylpiperazin-1-yl]ethan-1-one hydrochloride], for which the IC50 in experiment [1] is 75 nM; in experiment [2] (setting [8]) it was 17 nM. Besides, the concentration for a half-maximal effect (EC50) in experiment [3] (72 hours, Alamar Blue) is 640 nM.
Turning to `C[C@@H]1CN(CC(=O)N2CC3(Cc4ccccc4C3)c3ccc(C#N)cc32)[C@@H](C(=O)N2CCOCC2)CN1` [Example 109, 1′-{2-[(2R,5R)-5-Methyl-2-[(morpholin-4-yl)carbonyl]piperazin-1-yl]acetyl}-1,1′,2′,3-tetrahydro-spiro[indene-2,3′-indole]-6′-carbonitrile, hydrochloride salt], the IC50 in experiment [1] worked out at 63 nM; in experiment [2] (setting [8]), 150 nM. Also, the concentration giving a half-maximal response (EC50) in experiment [3] (72 hours, Alamar Blue) was 4800 nM.
For `C[C@@H]1CN(CC(=O)N2CC(C)(C)c3cnc(Oc4ccccc4Cl)cc32)[C@@H](CN2CCOC2=O)CN1` [Example 189, 3-{[(2R,5R)-1-{2-[6-(2-Chlorophenoxy)-3,3-dimethyl-1H,2H,3H-pyrrolo[3,2-c]pyridin-1-yl]-2-oxoethyl}-5-methylpiperazin-2-yl]methyl}-1,3-oxazolidin-2-one hydrochloride], the inhibition at 0.04 µM in experiment [1] (setting [7]) amounted to 70%. Also, the IC50 in experiment [2] (setting [8]) turned out to be 14 nM. Moreover, in experiment [3] (72 hours, Alamar Blue), the EC50 amounted to 190 nM.
In the case of `CCC(F)(F)c1cnc2c(c1)N(C(=O)CN1C[C@@H](C)NC[C@@H]1CN1CCOC[C@H]1COC)CC2(C)C` [Example 256, 1-[6-(1,1-Difluoropropyl)-3,3-dimethyl-1H,2H,3H-pyrrolo[3,2-b]pyridin-1-yl]-2-[(2R,5R)-2-{[(3R)-3-(methoxymethyl)morpholin-4-yl]methyl}-5-methylpiperazin-1-yl]ethan-1-one dihydrochloride], the IC50 in experiment [1] was 53 nM; in experiment [2], less than 1000 nM; in experiment [2] (setting [4]), 24 nM. Moreover, the EC50 in experiment [3] (72 h) was found to be 78 nM.
As to `CC[C@@H](C(=O)N1CC(C)(C)c2ccc(C#N)cc21)N1CCN[C@H](C)C1` [Example 266, 3,3-Dimethyl-1-[(2S)-2-[(3R)-3-methylpiperazin-1-yl]butanoyl]-2,3-dihydro-1H-indole-6-carbonitrile, hydrochloride salt], in experiment [1] (setting [5]), the inhibition at 150 µM is -6%. Further, the inhibition at 50 µM in experiment [2] (setting [6]) was 24%. In addition, the inhibition at 10 µM in experiment [3] (at 10 μM, read-out: EVSA-T prolif: % inhibition) is -20%.
For the compound `C[C@@H]1CN(CC(=O)N2CC(C)(C)c3cnc(C(F)(F)c4ccccc4)cc32)[C@@H](Cn2cc(F)cn2)CN1` [Example 176, 1-{6-[Difluoro(phenyl)methyl]-3,3-dimethyl-1H,2H,3H-pyrrolo[3,2-c]pyridin-1-yl}-2-[(2R,5R)-2-[(4-fluoro-1H-pyrazol-1-yl)methyl]-5-methylpiperazin-1-yl]ethan-1-one hydrochloride], the inhibition at 0.04 µM in experiment [1] (setting [7]) stood at 52%. The inhibition at […] in experiment [2] (setting [9]) turned out to be 70%. Moreover, the EC50 in experiment [3] (72 hours, Alamar Blue) amounted to 26 nM.
Take `C[C@@H]1CN(CC(=O)N2CC(C)(C)c3cnc(Cc4ccc(F)cc4F)cc32)[C@@H](CN2CC[C@H](F)C2)CN1` [Example 202, 1-{6-[(2,4-Difluorophenyl)methyl]-3,3-dimethyl-1H,2H,3H-pyrrolo[3,2-c]pyridin-1-yl}-2-[(2R,5R)-2-{[(3S)-3-fluoropyrrolidin-1-yl]methyl}-5-methylpiperazin-1-yl]ethan-1-one diydrochloride]: the IC50 in experiment [1] is 77 nM. Moreover, the inhibition at […] in experiment [2] (setting [9]) is 88%. Moreover, the EC50 in experiment [3] (72 h) is 2.1 nM.
For the compound `C[C@@H]1CN(CC(=O)N2CC(C)(C)c3cnc(Cc4ccccc4F)cc32)[C@@H](CN2CCCC2=O)CN1` [Example 242, 1-{[(2R,5R)-1-(2-{6-[(2-Fluorophenyl)methyl]-3,3-dimethyl-1H,2H,3H-pyrrolo[3,2-c]pyridin-1-yl}-2-oxoethyl)-5-methylpiperazin-2-yl]methyl}pyrrolidin-2-one hydrochloride], the inhibition at 0.04 µM in experiment [1] (setting [7]) came out at 65%. The inhibition at […] in experiment [2] (setting [9]) came out at 92%. The EC50 in experiment [3] (72 hours, Alamar Blue) is 13 nM.
In the case of `C[C@@H]1CN(CC(=O)N2CCc3cc(F)c(S(=O)(=O)c4ccccc4)cc32)CCN1` [Example 41, 1-(6-Benzenesulfonyl-5-fluoro-2,3-dihydro-indol-1-yl)-2-((R)-3-methyl-piperazin-1-yl)-ethanone], the IC50 was determined as 470 nM in experiment [1] and 1300 nM in experiment [2] (Probe A AVPIK(5&6FAM)-amide, read-out: IC50 or PI cIAP1: IC50). In addition, in experiment [3] (72 hours, Alamar Blue), the EC50 was determined as 5700 nM.
Consider `C[C@@H]1CN(CC(=O)N2CC(C)(C)c3ncc(Cc4ccc(F)cc4F)cc32)[C@@H](CN2CCOCC2)CN1` [Example 236, 1-{6-[(2,4-Difluorophenyl)methyl]-3,3-dimethyl-1H,2H,3H-pyrrolo[3,2-b]pyridin-1-yl}-2-[(2R,5R)-5-methyl-2-(morpholin-4-ylmethyl)piperazin-1-yl]ethan-1-one dihydrochloride], for which, in experiment [1], the IC50 was 58 nM. Also, the inhibition at […] in experiment [2] (setting [6]) is 96%. In experiment [3] (72 h), the EC50 was 7.8 nM.
Regarding `C[C@@H]1CN(CC(=O)N2CC(C)(c3ccccc3)c3ccc(C#N)cc32)[C@@H](C(=O)N2CCOCC2)CN1` (stereo partly drawn) [Example 149, 3-Methyl-1-{2-[(2R,5R)-5-methyl-2-[(morpholin-4-yl)carbonyl]piperazin-1-yl]acetyl}-3-phenyl-2,3-dihydro-1H-indole-6-carbonitrile hydrochloride], the IC50 in experiment [1] came to 55 nM; in experiment [2] (setting [8]) it was 130 nM. Besides, the EC50 in experiment [3] (72 hours, Alamar Blue) came to 9200 nM.
Regarding `COC[C@H]1CN[C@H](C)CN1CC(=O)N1CC(C)(c2cccnc2)c2ccc(Cc3ccccc3)cc21` (stereo partly drawn) [Example 163, 1-[6-Benzyl-3-methyl-3-(pyridin-3-yl)-2,3-dihydro-1H-indol-1-yl]-2-[(2R,5R)-2-(methoxymethyl)-5-methylpiperazin-1-yl]ethan-1-one hydrochloride], the IC50 is 160 nM in experiment [1], less than 1000 nM in experiment [2] and 13 nM in experiment [2] (setting [8]). In addition, the EC50 in experiment [3] (72 hours, Alamar Blue) was 450 nM.

Values taken from patent US9018214B2, “Bicyclic heterocycle compounds and their uses in therapy” (Astex Therapeutics Limited, priority 2011, dated 2015).
